Laboratory results taken from patent publication US10208089B2, “Modulation of complement activity” (priority 2014, dated 2019).
Starred links: 1 amine or outer side, 2 acyl side, 3 side chain; linkers in the order of their positions; H or OH if unused. Positions of bridges follow the written chain, without caps; N, C: chain ends. Non-standard residues stand in square brackets, D forms with d. Residues, ends and D or L forms follow the SMILES beside them. Trp(7-aza) = N[C@@H](Cc1c[nH]c2ncccc12)C(=O)O; Trp(1-Me) = Cn1cc(C[C@H](N)C(=O)O)c2ccccc21; mXylylene = c1cc(C[*:1])cc(C[*:2])c1; pXylylene = c1cc(C[*:2])ccc1C[*:1]; Phg = N[C@H](C(=O)O)c1ccccc1; Tle = CC(C)(C)[C@H](N)C(=O)O; NMeS = CN[C@@H](CO)C(=O)O; hCys = N[C@@H](CCS)C(=O)O; Nle = CCCC[C@H](N)C(=O)O; Nva = CCC[C@H](N)C(=O)O

Target: C5 (Homo sapiens, UniProt P01031)
Sequence (P01031 19-1676): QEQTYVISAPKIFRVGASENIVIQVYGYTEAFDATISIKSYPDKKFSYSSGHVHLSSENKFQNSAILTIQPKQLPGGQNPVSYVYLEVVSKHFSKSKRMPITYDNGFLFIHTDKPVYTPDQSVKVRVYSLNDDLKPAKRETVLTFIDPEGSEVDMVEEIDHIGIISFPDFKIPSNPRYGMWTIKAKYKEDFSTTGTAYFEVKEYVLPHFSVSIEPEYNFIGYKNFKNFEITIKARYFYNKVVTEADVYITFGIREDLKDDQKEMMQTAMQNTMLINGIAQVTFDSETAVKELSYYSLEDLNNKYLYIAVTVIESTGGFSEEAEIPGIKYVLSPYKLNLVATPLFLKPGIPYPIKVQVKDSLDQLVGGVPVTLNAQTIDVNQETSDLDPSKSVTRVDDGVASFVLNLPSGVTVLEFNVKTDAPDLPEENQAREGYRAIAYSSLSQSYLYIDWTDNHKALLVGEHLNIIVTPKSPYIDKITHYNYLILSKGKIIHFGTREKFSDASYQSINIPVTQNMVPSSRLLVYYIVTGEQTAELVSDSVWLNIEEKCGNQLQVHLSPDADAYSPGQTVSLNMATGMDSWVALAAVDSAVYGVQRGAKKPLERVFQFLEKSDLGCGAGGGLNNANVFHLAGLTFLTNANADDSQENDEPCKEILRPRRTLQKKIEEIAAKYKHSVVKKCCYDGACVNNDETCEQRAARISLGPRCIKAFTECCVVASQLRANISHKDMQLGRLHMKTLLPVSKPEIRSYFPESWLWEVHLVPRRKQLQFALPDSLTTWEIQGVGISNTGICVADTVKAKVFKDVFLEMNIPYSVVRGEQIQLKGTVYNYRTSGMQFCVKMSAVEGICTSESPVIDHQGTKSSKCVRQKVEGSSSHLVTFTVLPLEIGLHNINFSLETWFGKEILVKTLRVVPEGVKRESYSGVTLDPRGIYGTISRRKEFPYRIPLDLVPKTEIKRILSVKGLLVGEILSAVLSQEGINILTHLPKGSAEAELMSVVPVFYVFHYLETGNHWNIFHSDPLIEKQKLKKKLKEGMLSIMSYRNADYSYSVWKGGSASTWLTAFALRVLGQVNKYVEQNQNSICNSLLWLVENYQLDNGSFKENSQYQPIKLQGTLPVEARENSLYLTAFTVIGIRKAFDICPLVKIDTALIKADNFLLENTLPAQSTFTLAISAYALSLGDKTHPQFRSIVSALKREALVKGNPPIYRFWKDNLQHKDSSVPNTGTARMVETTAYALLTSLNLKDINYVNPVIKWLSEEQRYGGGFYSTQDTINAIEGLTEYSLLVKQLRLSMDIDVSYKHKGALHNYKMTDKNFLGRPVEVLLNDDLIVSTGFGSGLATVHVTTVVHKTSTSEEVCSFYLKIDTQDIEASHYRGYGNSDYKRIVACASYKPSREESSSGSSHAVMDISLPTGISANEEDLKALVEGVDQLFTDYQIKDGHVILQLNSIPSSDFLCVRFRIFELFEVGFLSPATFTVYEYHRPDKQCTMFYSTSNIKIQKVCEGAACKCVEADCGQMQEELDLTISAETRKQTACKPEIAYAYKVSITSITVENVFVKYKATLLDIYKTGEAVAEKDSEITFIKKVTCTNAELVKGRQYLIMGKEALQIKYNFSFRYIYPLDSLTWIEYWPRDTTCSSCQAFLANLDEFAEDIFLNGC
Experiment: Human hemolysis assay (RBC lysis assay using complete human sera)
Assay type: cell-based
Set-up: with complete human sera (Complement Technology, Tyler Tex.) and polypeptides; tissue Complement Technology, Tyler Tex; host or cells: complete human serum
Settings: for ability to inhibit red blood cell lysis compared with the parent polypeptide (in words): variants of R3021, R3002 or R3008
[1] = inhibition of lysis of antibody-sensitized sheep erythrocytes, complete human sera
[2] = 7-azatryptophan variant polypeptides of R3002, inhibition of red blood cell lysis
[3] = variants of R3021 with internal amino acid deletions, inhibition of red blood cell lysis

SMILES | IC50 [1] | also measured
CCC[C@H](NC(=O)[C@@H]1CCSCc2cccc(c2)CSC[C@H](NC(=O)[C@H](CCC)NC(C)=O)C(=O)N[C@@H](c2ccccc2)C(=O)N[C@@H]([C@@H](C)O)C(=O)N[C@@H](Cc2c[nH]c3ncccc23)C(=O)N[C@@H](CCC(=O)O)C(=O)N[C@@H](Cc2ccc(O)cc2)C(=O)N(C)[C@@H](CO)C(=O)N[C@@H](Cc2c[nH]cn2)C(=O)N1)C(N)=O [Compound R3105, [mXylyl(2,10)]Ac-Nvl-C-Phg-T-azaTrp-E-Y-(N-Me)S-H-homoC-Nvl-NH2] (Ac-[Nva]C[Phg]T[Trp(7-aza)]EY[NMeS]H[hCys][Nva]-NH2; linker 2-10 via mXylylene) | > 5 µM | 
CCC[C@H](NC(=O)[C@@H]1CCSCc2ccc(cc2)CSC[C@H](NC(=O)[C@H](CCC)NC(C)=O)C(=O)N[C@@H](c2ccccc2)C(=O)N[C@@H]([C@@H](C)O)C(=O)N[C@@H](Cc2c[nH]c3ncccc23)C(=O)N[C@@H](CCC(=O)O)C(=O)N[C@@H](Cc2ccc(O)cc2)C(=O)N(C)[C@@H](CO)C(=O)N[C@@H](Cc2c[nH]cn2)C(=O)N1)C(N)=O [Compound R3106, [pXylyl(2,10)]Ac-Nvl-C-Phg-T-azaTrp-E-Y-(N-Me)S-H-homoC-Nvl-NH2] (Ac-[Nva]C[Phg]T[Trp(7-aza)]EY[NMeS]H[hCys][Nva]-NH2; linker 2-10 via pXylylene) | > 5 µM | 
CCC[C@H](NC(=O)[C@@H]1CCSCc2cccc(c2)CSCC[C@H](NC(=O)[C@H](CCC)NC(C)=O)C(=O)N[C@@H](c2ccccc2)C(=O)N[C@@H]([C@@H](C)O)C(=O)N[C@@H](Cc2c[nH]c3ncccc23)C(=O)N[C@@H](CCC(=O)O)C(=O)N[C@@H](Cc2ccc(O)cc2)C(=O)N(C)[C@@H](CO)C(=O)N[C@@H](Cc2c[nH]cn2)C(=O)N1)C(N)=O [Compound R3107, [mXylyl(2,10)]Ac-Nvl-homoC-Phg-T-azaTrp-E-Y-(N-Me)S-H-homoC-Nvl-NH2] (Ac-[Nva][hCys][Phg]T[Trp(7-aza)]EY[NMeS]H[hCys][Nva]-NH2; linker 2-10 via mXylylene) | > 75 µM | 
CCC[C@H](NC(=O)[C@@H]1CSCc2cccc(c2)CSC[C@H](NC(=O)[C@H](CCC)NC(C)=O)C(=O)N[C@@H](c2ccccc2)C(=O)N[C@@H]([C@@H](C)O)C(=O)N[C@@H](Cc2cn(C)c3ccccc23)C(=O)N[C@@H](CCC(=O)O)C(=O)N[C@@H](Cc2ccc(O)cc2)C(=O)N(C)[C@@H](CO)C(=O)N[C@@H](C)C(=O)N1)C(N)=O [Compound R3109, [mXylyl(2,10)]Ac-Nvl-C-Phg-T-(1-Me-W)-E-Y-(N-Me)S-A-C-Nvl-NH2] (Ac-[Nva]C[Phg]T[Trp(1-Me)]EY[NMeS]AC[Nva]-NH2; linker 2-10 via mXylylene) | > 100 µM | IC50 (7-azatryptophan variant polypeptides of R3008, inhibition of red blood cell lysis): > 100 µM
CCC[C@H](NC(=O)[C@@H](NC(=O)[C@@H]1CCCN1C(=O)[C@H](Cc1ccc(O)cc1)NC(=O)[C@H](CCC(=O)O)NC(=O)[C@H](Cc1cn(C)c2ccccc12)NC(=O)[C@H](Cc1ccc(O)cc1)NC(=O)[C@@H](NC(=O)[C@H](CC(N)=O)NC(=O)[C@H](CCC(=O)O)NC(=O)[C@H](Cc1ccc(O)cc1)NC(C)=O)C(C)(C)C)c1ccccc1)C(N)=O [Compound R3110, Ac-Y-E-N-Tbg-Y-(1-Me)W-E-Y-P-Phg-Nvl-NH2] | 2.94 µM | 
CCC[C@H](NC(=O)[C@@H]1CSCc2cccc(c2)CSC[C@H](NC(=O)[C@@H](NC(=O)[C@@H](NC(=O)[C@H](CCC)NC(C)=O)[C@@H](C)O)c2ccccc2)C(=O)N[C@@H](Cc2c[nH]c3ncccc23)C(=O)N[C@@H](CCC(=O)O)C(=O)N[C@@H](Cc2ccc(O)cc2)C(=O)N(C)[C@@H](CO)C(=O)N[C@@H](C)C(=O)N1)C(N)=O [Compound R3111, [mXylyl(4,10)]Ac-Nvl-T-Phg-C-azaTrp-E-Y-(N-Me)S-A-C-Nvl-NH2] (Ac-[Nva]T[Phg]C[Trp(7-aza)]EY[NMeS]AC[Nva]-NH2; linker 4-10 via mXylylene) | > 5 µM | 
CCCC[C@H](NC(C)=O)C(=O)N[C@H]1CSCc2cccc(c2)CSC[C@@H](C(=O)N[C@@H](CCC)C(N)=O)NC(=O)[C@H](Cc2c[nH]cn2)NC(=O)[C@H](CO)N(C)C(=O)[C@H](Cc2ccc(O)cc2)NC(=O)[C@H](CCC(=O)O)NC(=O)[C@H](Cc2c[nH]c3ncccc23)NC(=O)[C@H]([C@@H](C)O)NC(=O)[C@H](c2ccccc2)NC1=O [Compound R3112, [mXyly1(2,10)]Ac-Nle-C-Phg-T-azaTrp-E-Y-(N-Me)S-H-C-Nvl-NH2] (Ac-[Nle]C[Phg]T[Trp(7-aza)]EY[NMeS]HC[Nva]-NH2; linker 2-10 via mXylylene) | > 5 µM | 
CCC[C@H](NC(=O)[C@@H]1CSCc2cccc(c2)CSC[C@H](NC(=O)[C@H](CCC)NC(=O)[C@H](Cc2ccc(O)cc2)NC(C)=O)C(=O)N[C@@H](c2ccccc2)C(=O)N[C@@H]([C@@H](C)O)C(=O)N[C@@H](Cc2c[nH]c3ncccc23)C(=O)N[C@@H](CCC(=O)O)C(=O)N[C@@H](Cc2ccc(O)cc2)C(=O)N(C)[C@@H](CO)C(=O)N[C@@H](Cc2c[nH]cn2)C(=O)N1)C(N)=O [Compound R3113, [mXylyl(3,11)]Ac-Y-Nvl-C-Phg-T-azaTrp-E-Y-(N-Me)S-H-C-Nvl-NH2] (Ac-Y[Nva]C[Phg]T[Trp(7-aza)]EY[NMeS]HC[Nva]-NH2; linker 3-11 via mXylylene) | > 5 µM | 
CCC[C@H](NC(=O)[C@@H](NC(=O)[C@@H]1CCCN1C(=O)[C@H](Cc1ccc(O)cc1)NC(=O)[C@H](CCC(=O)O)NC(=O)[C@@H](Cc1c[nH]c2ccccc12)NC(=O)[C@H](Cc1ccc(O)cc1)NC(=O)[C@@H](NC(=O)[C@H](CC(N)=O)NC(=O)[C@H](CCC(=O)O)NC(=O)[C@H](Cc1ccc(O)cc1)NC(C)=O)C(C)(C)C)c1ccccc1)C(N)=O [Compound R3118, Ac-Y-E-N-Tbg-Y-(D-Trp)-E-Y-P-Phg-Nvl-NH2] | > 100 µM | IC50 [2]: > 100 µM
CCC[C@H](NC(=O)[C@@H](NC(=O)[C@@H]1CCCN1C(=O)[C@H](Cc1ccc(O)cc1)NC(=O)[C@H](CCC(=O)O)NC(=O)[C@@H](Cc1c[nH]c2ccccc12)NC(=O)[C@H](Cc1ccc(O)cc1)NC(=O)[C@H](CC(N)=O)NC(=O)[C@H](CCC(=O)O)NC(=O)[C@H](Cc1ccc(O)cc1)NC(C)=O)c1ccccc1)C(N)=O [Compound R3119, Ac-Y-E-N-Y-(D-Trp)-E-Y-P-Phg-Nvl-NH2] (Ac-YENY[dW]EYP[Phg][Nva]-NH2) | > 100 µM | IC50 [2]: > 100 µM
CC(=O)N[C@H]1CSCc2cccc(c2)CSC[C@@H](C(=O)N[C@H](C(=O)N[C@@H](Cc2ccc(O)cc2)C(=O)N[C@@H](Cc2c[nH]c3ccccc23)C(=O)N[C@@H](CCC(=O)O)C(=O)N[C@@H](Cc2ccccc2)C(N)=O)C(C)C)NC(=O)[C@H](Cc2ccccc2)NC(=O)[C@H](CCCNC(=N)N)NC(=O)[C@H](CCC(=O)O)NC(=O)[C@H](C(C)C)NC1=O [Compound R3124, [mXylyl(1,6)]Ac-C-V-E-R-F-C-V-Y-W-E-F-NH2] (Ac-CVERFCVYWEF-NH2; linker 1-6 via mXylylene) | > 100 µM | ability to inhibit red blood cell lysis compared with the parent polypeptide (in words): decrease in the ability; IC50 [3]: > 100 µM
CC(=O)N[C@H]1CSCc2cccc(c2)CSC[C@@H](C(=O)N[C@@H](Cc2c[nH]c3ccccc23)C(=O)N[C@@H](CCC(=O)O)C(=O)N[C@@H](Cc2ccccc2)C(N)=O)NC(=O)[C@H](Cc2ccccc2)NC(=O)[C@H](CCCNC(=N)N)NC(=O)[C@H](CCC(=O)O)NC(=O)[C@H](C(C)C)NC1=O [Compound R3125, [mXylyl(1,6)]Ac-C-V-E-R-F-C-W-E-F-NH2] (Ac-CVERFCWEF-NH2; linker 1-6 via mXylylene) | > 100 µM | ability to inhibit red blood cell lysis compared with the parent polypeptide (in words): decrease in the ability; IC50 [3]: > 100 µM
CCC[C@H](NC(C)=O)C(=O)N[C@@H](CS)C(=O)N[C@@H](Cc1ccc(O)cc1)C(=O)N[C@@H](CC(N)=O)C(=O)N[C@@H](CC(N)=O)C(=O)N[C@H](C(=O)N[C@@H](CCC(=O)O)C(=O)N[C@@H](Cc1c[nH]c2ncccc12)C(=O)N[C@@H](CCC(=O)O)C(=O)N[C@@H](CS)C(=O)N1CCC[C@H]1C(=O)N[C@H](C(=O)N[C@H](C(N)=O)C(C)(C)C)c1ccccc1)C(C)(C)C [Compound R3126, Ac-Nvl-C-Y-N-N-Tbg-E-azaTrp-E-C-P-Phg-Tbg-NH2] (Ac-[Nva]CYNN[Tle]E[Trp(7-aza)]ECP[Phg][Tle]-NH2) | > 3 µM | 
CCC[C@H](NC(C)=O)C(=O)N[C@H]1CSCc2cccc(c2)CSC[C@@H](C(=O)N2CCC[C@H]2C(=O)N[C@H](C(=O)N[C@H](C(N)=O)C(C)(C)C)c2ccccc2)NC(=O)[C@H](CCC(=O)O)NC(=O)[C@H](Cc2c[nH]c3ncccc23)NC(=O)[C@H](CCC(=O)O)NC(=O)[C@H](C(C)(C)C)NC(=O)[C@H](CC(N)=O)NC(=O)[C@H](CC(N)=O)NC(=O)[C@H](Cc2ccc(O)cc2)NC1=O [Compound R3127, [mXylyl(2,10)]Ac-Nvl-C-Y-N-N-Tbg-E-azaTrp-E-C-P-Pha-Tbg-NH2] (Ac-[Nva]CYNN[Tle]E[Trp(7-aza)]ECP[Phg][Tle]-NH2; linker 2-10 via mXylylene) | > 75 µM | 
CCC[C@H](NC(C)=O)C(=O)N[C@@H](CS)C(=O)N[C@@H](Cc1ccc(O)cc1)C(=O)N[C@@H](CC(N)=O)C(=O)N[C@@H](CC(N)=O)C(=O)N[C@H](C(=O)N[C@@H](CCC(=O)O)C(=O)N[C@@H](CS)C(=O)N[C@@H](CCC(=O)O)C(=O)N[C@@H](Cc1ccc(O)cc1)C(=O)N1CCC[C@H]1C(=O)N[C@H](C(=O)N[C@H](C(N)=O)C(C)(C)C)c1ccccc1)C(C)(C)C [Compound R3128, Ac-Nvl-C-Y-N-N-Tbg-E-C-E-Y-P-Phg-Tbg-NH2] (Ac-[Nva]CYNN[Tle]ECEYP[Phg][Tle]-NH2) | > 100 µM | IC50 [2]: > 100 µM
CCC[C@H](NC(C)=O)C(=O)N[C@H]1CSCc2cccc(c2)CSC[C@@H](C(=O)N[C@@H](CCC(=O)O)C(=O)N[C@@H](Cc2ccc(O)cc2)C(=O)N2CCC[C@H]2C(=O)N[C@H](C(=O)N[C@H](C(N)=O)C(C)(C)C)c2ccccc2)NC(=O)[C@H](CCC(=O)O)NC(=O)[C@H](C(C)(C)C)NC(=O)[C@H](CC(N)=O)NC(=O)[C@H](CC(N)=O)NC(=O)[C@H](Cc2ccc(O)cc2)NC1=O [Compound R3129, [mXylyl(2,8)]Ac-Nvl-C-Y-N-N-Tbg-E-C-E-Y-P-Phg-Tbg-NH2] (Ac-[Nva]CYNN[Tle]ECEYP[Phg][Tle]-NH2; linker 2-8 via mXylylene) | > 100 µM | IC50 [2]: > 100 µM
